Test results taken from ChEMBL document CHEMBL1148565 (Bioorg Med Chem Lett, 2006).

Target: Carbonic anhydrase 12 (Homo sapiens, UniProt O43570)
Sequence (O43570 whole entry): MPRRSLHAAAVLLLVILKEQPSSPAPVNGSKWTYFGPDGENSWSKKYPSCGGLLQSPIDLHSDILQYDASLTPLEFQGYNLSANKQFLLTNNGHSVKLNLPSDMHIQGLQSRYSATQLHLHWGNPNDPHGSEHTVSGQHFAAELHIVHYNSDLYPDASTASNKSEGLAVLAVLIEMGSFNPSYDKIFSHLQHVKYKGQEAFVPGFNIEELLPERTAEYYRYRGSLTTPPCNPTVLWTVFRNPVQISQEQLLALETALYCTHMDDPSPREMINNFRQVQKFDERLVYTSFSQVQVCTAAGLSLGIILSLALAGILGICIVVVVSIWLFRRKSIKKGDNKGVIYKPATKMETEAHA
Description: Inhibitory activity against cloned human CA12

Q: Cc1ccc(-c2cc(C(F)(F)F)nn2-c2ccc(S(N)(=O)=O)cc2)cc1 [CELECOXIB] was tested. Which Ki did it give?
A: The Ki was 18 nM.
